9 molecules from PubChem BioAssay (NCI) can be followed below.

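A five-concentration, 48-hour dose response in 96-well plates underlies each endpoint, interpolated linearly between surrounding concentrations. GI50 = concentration required for 50% inhibition of growth. TGI denotes the concentration required for complete inhibition of growth.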

Among the test systems are CCRF-CEM leukemia; MOLT-4 leukemia; A498 renal; 786-0 renal; DU-145 prostate; HCT-116 colon; TK-10 renal; SW-620 colon; UACC-257 melanoma; CAKI-1 renal.
What all share (assay): inhibition of tumour cell growth, NCI panel, 48 h

For `COc1ccc(-n2c(-c3ccc(NC(=O)CCCl)cc3)nnc2-c2cc(OC)c(OC)c(OC)c2)cc1`, the GI50 was 4.53 µM with CCRF-CEM leukemia; 3.4 µM in the assay with MOLT-4 leukemia; 3.82 µM in the assay with A498 renal; 12.5 µM in the assay with 786-0 renal; 2.77 µM in the assay with DU-145 prostate; 2.81 µM with HCT-116 colon. Also, the GI50 was 4.97 µM in the assay with TK-10 renal, 4.55 µM in the assay with SW-620 colon and 6.23 µM in the assay on UACC-257 melanoma. In addition, the TGI in the assay with CCRF-CEM leukemia was above 14.3 µM; with MOLT-4 leukemia, 10.6 µM; in the assay with A498 renal, 12.8 µM; in the assay with 786-0 renal, above 14.3 µM; in the assay with DU-145 prostate, 8.67 µM; in the assay with HCT-116 colon, 8.54 µM. Besides, the TGI with TK-10 renal was 11.9 µM; in the assay with SW-620 colon, above 14.3 µM; in the assay with UACC-257 melanoma, above 14.3 µM.
Regarding `Cc1ccc(C)c(-n2c(-c3ccc(Br)cc3)csc2=NC(=O)c2ccccc2F)c1`, the GI50 in the assay with A498 renal is above 100 µM; in the assay on 786-0 renal, above 100 µM; in the assay with DU-145 prostate, above 100 µM; with HCT-116 colon it was 3.1 µM; in the assay on TK-10 renal, above 100 µM; with SW-620 colon, above 100 µM. Also, the GI50 with UACC-257 melanoma is above 100 µM. Besides, the TGI in the assay on A498 renal, with 786-0 renal, in the assay with DU-145 prostate, in the assay with HCT-116 colon, in the assay with TK-10 renal and in the assay on SW-620 colon was above 100 µM throughout. In the assay on UACC-257 melanoma, this molecule displayed a TGI above 100 µM.
Take `CS(=O)(=O)c1ccc(Oc2nccc(-c3c(-c4ccc(F)cc4)ncn3C3CCNCC3)n2)cc1`: the GI50 in the assay on MOLT-4 leukemia is above 12.9 µM; with A498 renal it was above 25 µM; in the assay on 786-0 renal it was above 25 µM; in the assay with DU-145 prostate it was above 25 µM; in the assay with CAKI-1 renal, above 25 µM; with HCT-116 colon it was above 25 µM. The GI50 with TK-10 renal and in the assay with SW-620 colon was above 25 µM in each case. In addition, the TGI in the assay on MOLT-4 leukemia was above 18.9 µM; in the assay on A498 renal, above 25 µM; in the assay on 786-0 renal it was above 25 µM; with DU-145 prostate it was above 25 µM; in the assay with CAKI-1 renal, above 25 µM; in the assay on HCT-116 colon, above 25 µM. The TGI in the assay on TK-10 renal and in the assay on SW-620 colon was above 25 µM in each case.
As to `O=C(CCl)Nc1ccccc1SCc1cc(Cl)cc2c1OCOC2`, the GI50 is 2.18 µM in the assay on CCRF-CEM leukemia; 2.6 µM in the assay on MOLT-4 leukemia; 12.9 µM in the assay with A498 renal; 12.6 µM in the assay with 786-0 renal; 15.7 µM in the assay with DU-145 prostate; 5.5 µM with CAKI-1 renal. Further, the GI50 was 4.64 µM in the assay on HCT-116 colon, 16.9 µM with TK-10 renal and 3.73 µM in the assay on SW-620 colon. Moreover, the TGI in the assay on CCRF-CEM leukemia was 5.35 µM; in the assay on MOLT-4 leukemia, 7.51 µM; with A498 renal, 26.2 µM; with 786-0 renal, 26.4 µM; with DU-145 prostate it was 29.4 µM; in the assay on CAKI-1 renal, 32.6 µM. The TGI with HCT-116 colon was 16.8 µM; in the assay on TK-10 renal, 31.4 µM; in the assay on SW-620 colon, 17.1 µM.
For `CC1=C(C(=O)Nc2ccc(F)c(Cl)c2)C(c2cccc(O)c2)NC(=S)N1` (configuration not stated), the GI50 was above 50 µM with CCRF-CEM leukemia; 9.45 µM in the assay on A498 renal; 19.1 µM in the assay on 786-0 renal; above 50 µM in the assay on DU-145 prostate; above 50 µM in the assay with CAKI-1 renal; 34.2 µM with HCT-116 colon. For the same molecule, the GI50 in the assay with TK-10 renal is above 50 µM; with SW-620 colon it was 20.6 µM; in the assay on UACC-257 melanoma, 16.5 µM. Besides, the TGI with CCRF-CEM leukemia is above 50 µM; with A498 renal, 33.5 µM; with 786-0 renal, above 50 µM; in the assay on DU-145 prostate, above 50 µM; with CAKI-1 renal, above 50 µM; in the assay on HCT-116 colon, above 50 µM. For the same molecule, the TGI in the assay with TK-10 renal was above 50 µM; with SW-620 colon, above 50 µM; with UACC-257 melanoma, 44.4 µM.
For `COc1ccc(/C=C/C(=O)/C=C(/C=C/c2ccc(OC)c(OC)c2)OB(F)F)cc1OC`, the GI50 in the assay with CCRF-CEM leukemia is 0.323 µM; in the assay on MOLT-4 leukemia, 0.449 µM; in the assay with A498 renal it was 1.83 µM; in the assay with 786-0 renal it was 1.07 µM; with DU-145 prostate, 1.12 µM; in the assay on HCT-116 colon, 0.321 µM. Moreover, the GI50 is 1.25 µM in the assay with TK-10 renal, 0.373 µM in the assay with SW-620 colon and 1.76 µM in the assay with UACC-257 melanoma. The TGI in the assay with CCRF-CEM leukemia stood at 2.63 µM; in the assay with MOLT-4 leukemia it was 6.17 µM; in the assay on A498 renal, 5.12 µM; in the assay on 786-0 renal, 2.93 µM; in the assay with DU-145 prostate, 2.84 µM; in the assay on HCT-116 colon it was 1.09 µM. Besides, the results for the TGI in the assay on TK-10 renal, in the assay with SW-620 colon and with UACC-257 melanoma were 9.48 µM, 2.33 µM and 5.55 µM, respectively.
For the molecule `COc1cccc2c(Nc3ccc(C(=O)NCCNCCO)cc3)cc(-c3ccccc3)nc12`, the GI50 in the assay with CCRF-CEM leukemia is 20.2 µM; in the assay with A498 renal it was 62.5 µM; with 786-0 renal it was 33.5 µM; with DU-145 prostate, 58.7 µM; with CAKI-1 renal, above 100 µM; in the assay on HCT-116 colon, 34.6 µM. The values for the GI50 with TK-10 renal, in the assay with SW-620 colon and with UACC-257 melanoma were 30.2 µM, 37.7 µM and 39 µM, respectively. For the same molecule, the TGI is 48.3 µM with CCRF-CEM leukemia; above 100 µM with A498 renal; above 100 µM in the assay with 786-0 renal; above 100 µM in the assay with DU-145 prostate; above 100 µM in the assay on CAKI-1 renal; above 100 µM with HCT-116 colon. The TGI with TK-10 renal, in the assay on SW-620 colon and in the assay on UACC-257 melanoma was above 100 µM each time.
For the molecule `Cc1cc(S(=O)(=O)Nc2nnc(-c3ccco3)c(-c3ccco3)n2)c(SCc2ccccc2)cc1Cl`, the GI50 with CCRF-CEM leukemia is 23.2 µM; in the assay on MOLT-4 leukemia, 17.9 µM; in the assay on 786-0 renal, 38.8 µM; with DU-145 prostate it was 17 µM; with CAKI-1 renal, 28.5 µM; with HCT-116 colon, 33.2 µM. For the same molecule, the GI50 in the assay on TK-10 renal is 26.7 µM; in the assay on SW-620 colon, 23 µM; in the assay on UACC-257 melanoma it was 25.9 µM. In addition, the TGI is 66.1 µM in the assay on CCRF-CEM leukemia; 53 µM in the assay with MOLT-4 leukemia; above 100 µM with 786-0 renal; 32.5 µM with DU-145 prostate; 55.8 µM in the assay on CAKI-1 renal; above 100 µM in the assay on HCT-116 colon. In addition, the TGI with TK-10 renal turned out to be 74.8 µM; in the assay on SW-620 colon it was 47.2 µM; in the assay with UACC-257 melanoma it was 67.6 µM.
On to `COC(=O)[C@H](C)[C@H]1CC[C@@](C)([C@H]2CC3C(C)(C)[C@H]4CCC(C)=C[C@H]4C[C@@]3(C)O2)OO1` (some centres not stated), for which the TGI was found to be 16.3 µM in the assay on CCRF-CEM leukemia; 25.3 µM in the assay on MOLT-4 leukemia; 24.1 µM in the assay with A498 renal; 20.2 µM in the assay with 786-0 renal; 18.2 µM in the assay on CAKI-1 renal; 22.3 µM in the assay on HCT-116 colon. Further, the TGI with TK-10 renal was found to be 28.9 µM; in the assay with SW-620 colon it was 27 µM; in the assay with UACC-257 melanoma, 27.5 µM.
